Test results from ChEMBL document CHEMBL5678816, “A Next-Generation TRK Kinase Inhibitor Overcomes Acquired Resistance to Prior TRK Kinase Inhibition in Patients with TRK Fusion-Positive Solid Tumors” (Cancer Discov, 2017).
Activity calls are given as the source filed them. The calls are words filed in the database; no cut-off is given here.

Tests used:
[1] = biological target: Mast/stem cell growth factor receptor Kit (Homo sapiens) (UniProt P10721); test: Inhibition of KIT (unknown origin) at 1 uM in presence of ATP relative to control; values are per cent of control
[2] = biological target: Serine/threonine-protein kinase DCLK2 (Homo sapiens) (UniProt Q8N568); test: Inhibition of DCAMKL2 (unknown origin) at 1 uM in presence of ATP relative to control; values are per cent of control
[3] = biological target: Serine/threonine-protein kinase 33 (Homo sapiens) (UniProt Q9BYT3); test: Inhibition of STK33 (unknown origin) at 1 uM in presence of ATP relative to control; values are per cent of control
[4] = Cmin in pediatric patient with recurrent ETV6-NTRK3-rearranged infantile fibrosarcoma at 60 mg administered twice a day as liquid formulation for 8 day and measured 12 hrs post dose by LC-MS/MS analysis; format: ADME; details: human, in vivo, read-out: Cmin
[5] = biological target: G protein-coupled receptor kinase 5 (Homo sapiens) (UniProt P34947); test: Inhibition of GRK5 (unknown origin) at 1 uM in presence of ATP relative to control; values are per cent of control
[6] = Inhibition of N-terminal 6His-tagged TRKC G623R mutant (506 to 829 residues) (unknown origin) expressed in Escherichia coli incubated for 60 mins by [gamma-33P]-ATP based TopCount NXT liquid scintillation assay; set-up: species or system Homo sapiens
[7] = biological target: Mitogen-activated protein kinase 8 (Homo sapiens) (UniProt P45983); test: Inhibition of JNK1alpha1 (unknown origin) at 1 uM in presence of ATP relative to control; values are per cent of control
[8] = biological target: LIM domain kinase 1 (Homo sapiens) (UniProt P53667); test: Inhibition of LIMK1 (unknown origin) at 1 uM in presence of ATP relative to control; values are per cent of control
[9] = system: Detroit 562; test: Inhibition of cell proliferation in human Detroit 562 cells upto 10 umol/L incubated for 72 hrs by DAPI staining based analysis; format: functional; details: dose <= 10.0 µmol/L
[10] = system: MIA PaCa-2; test: Inhibition of cell proliferation in human MIA PaCa-2 cells upto 10 umol/L incubated for 72 hrs by DAPI staining based analysis; format: functional; details: dose <= 10.0 µmol/L
[11] = biological target: Dual specificity mitogen-activated protein kinase kinase 7 (Homo sapiens) (UniProt O14733); test: Inhibition of MKK7 (unknown origin) at 1 uM in presence of ATP relative to control; values are per cent of control
[12] = system: SK-LMS-1; test: Inhibition of cell proliferation in human SK-LMS-1 cells upto 10 umol/L incubated for 72 hrs by DAPI staining based analysis; format: functional; details: dose <= 10.0 µmol/L
[13] = biological target: Ribosomal protein S6 kinase alpha-4 (Homo sapiens) (UniProt O75676); test: Inhibition of MSK2 (unknown origin) at 1 uM in presence of ATP relative to control; values are per cent of control
[14] = system: NIH3T3; test: In vivo inhibition of […] in nu/nu NCr mouse implanted with mouse NIH3T3 cells harboring extracellular domain deleted […] assessed as reduction in […] phosphorylation at 10 to 100 mg/kg, po administered twice daily for 3 days and measured after 2 hrs post last dose by ELISA; format: functional, organism-based; details: dose 10-100 mg/kg, time 3.0 day
[15] = biological target: Receptor-interacting serine/threonine-protein kinase 2 (Homo sapiens) (UniProt O43353); test: Inhibition of RIPK2 (unknown origin) at 1 uM in presence of ATP relative to control; values are per cent of control
[16] = biological target: CDK3/Cyclin E (Homo sapiens) (UniProt P24864+Q00526); test: Inhibition of CDK3/cyclinE (unknown origin) at 1 uM in presence of ATP relative to control; values are per cent of control
[17] = biological target: Receptor tyrosine-protein kinase erbB-4 (Homo sapiens) (UniProt Q15303); test: Inhibition of ErbB4 (unknown origin) at 1 uM in presence of ATP relative to control; values are per cent of control
[18] = biological target: Focal adhesion kinase 1 (Homo sapiens) (UniProt Q05397); test: Inhibition of FAK (unknown origin) at 1 uM in presence of ATP relative to control; values are per cent of control
[19] = biological target: Calcium/calmodulin-dependent protein kinase type IV (Homo sapiens) (UniProt Q16566); test: Inhibition of CAMK4 (unknown origin) at 1 uM in presence of ATP relative to control; values are per cent of control
[20] = biological target: Muscle, skeletal receptor tyrosine-protein kinase (Homo sapiens) (UniProt O15146); test: Inhibition of MUSK (unknown origin) at 1 uM in presence of ATP relative to control; values are per cent of control
[21] = biological target: Serine/threonine-protein kinase Nek11 (Homo sapiens) (UniProt Q8NG66); test: Inhibition of NEK11 (unknown origin) at 1 uM in presence of ATP relative to control; values are per cent of control
[22] = AUC in adult patient with recurrent LMNA-NTRK1 rearranged colorectal cancer at 100 mg administered twice a day as powder-in-capsule or liquid formulation for 15 day by LC-MS/MS analysis; format: ADME; details: human, in vivo, po
[23] = system: NCI-H441; test: Inhibition of cell proliferation in human NCI-H441 cells upto 10 umol/L incubated for 72 hrs by DAPI staining based analysis; format: functional; details: dose <= 10.0 µmol/L
[24] = biological target: Serine/threonine-protein kinase SIK1 (Homo sapiens) (UniProt P57059); test: Inhibition of SIK (unknown origin) at 1 uM in presence of ATP relative to control; values are per cent of control
[25] = biological target: Dual specificity tyrosine-phosphorylation-regulated kinase 2 (Homo sapiens) (UniProt Q92630); test: Inhibition of DYRK2 (unknown origin) at 1 uM in presence of ATP relative to control; values are per cent of control
[26] = biological target: FKBP12A/mTOR (Homo sapiens) (UniProt P62942+P42345); test: Inhibition of mTOR/FKBP12 (unknown origin) at 1 uM in presence of ATP relative to control; values are per cent of control
[27] = biological target: Macrophage-stimulating protein receptor (Homo sapiens) (UniProt Q04912); test: Inhibition of Ron (unknown origin) at 1 uM in presence of ATP relative to control; values are per cent of control

Sequence of Mast/stem cell growth factor receptor Kit (Homo sapiens) (P10721 whole entry): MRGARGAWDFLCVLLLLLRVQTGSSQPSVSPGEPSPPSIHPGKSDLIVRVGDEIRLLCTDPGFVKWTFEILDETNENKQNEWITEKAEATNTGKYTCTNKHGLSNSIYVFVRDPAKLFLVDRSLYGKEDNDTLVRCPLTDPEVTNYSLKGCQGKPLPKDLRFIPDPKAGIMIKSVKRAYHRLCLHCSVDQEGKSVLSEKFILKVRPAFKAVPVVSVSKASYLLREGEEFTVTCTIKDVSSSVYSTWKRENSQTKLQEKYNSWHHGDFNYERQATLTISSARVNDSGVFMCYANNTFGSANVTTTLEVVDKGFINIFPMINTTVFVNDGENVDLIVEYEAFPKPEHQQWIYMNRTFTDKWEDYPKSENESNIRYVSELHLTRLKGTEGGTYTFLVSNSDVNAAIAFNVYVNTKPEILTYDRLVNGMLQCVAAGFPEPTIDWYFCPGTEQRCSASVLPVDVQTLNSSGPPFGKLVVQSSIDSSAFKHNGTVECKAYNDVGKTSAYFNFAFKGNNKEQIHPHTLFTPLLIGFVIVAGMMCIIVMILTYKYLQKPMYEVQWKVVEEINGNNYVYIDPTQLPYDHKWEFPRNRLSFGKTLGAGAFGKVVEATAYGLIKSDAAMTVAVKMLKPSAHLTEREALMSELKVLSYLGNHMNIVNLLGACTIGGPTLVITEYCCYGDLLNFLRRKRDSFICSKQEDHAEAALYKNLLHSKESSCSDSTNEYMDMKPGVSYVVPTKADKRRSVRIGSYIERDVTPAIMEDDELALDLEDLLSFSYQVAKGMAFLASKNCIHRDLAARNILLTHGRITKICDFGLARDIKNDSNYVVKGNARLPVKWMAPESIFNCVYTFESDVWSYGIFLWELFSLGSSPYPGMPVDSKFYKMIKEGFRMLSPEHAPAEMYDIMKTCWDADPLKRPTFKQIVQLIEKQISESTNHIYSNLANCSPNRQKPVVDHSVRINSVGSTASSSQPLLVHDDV
Sequence of Calcium/calmodulin-dependent protein kinase type IV (Homo sapiens) (Q16566 whole entry): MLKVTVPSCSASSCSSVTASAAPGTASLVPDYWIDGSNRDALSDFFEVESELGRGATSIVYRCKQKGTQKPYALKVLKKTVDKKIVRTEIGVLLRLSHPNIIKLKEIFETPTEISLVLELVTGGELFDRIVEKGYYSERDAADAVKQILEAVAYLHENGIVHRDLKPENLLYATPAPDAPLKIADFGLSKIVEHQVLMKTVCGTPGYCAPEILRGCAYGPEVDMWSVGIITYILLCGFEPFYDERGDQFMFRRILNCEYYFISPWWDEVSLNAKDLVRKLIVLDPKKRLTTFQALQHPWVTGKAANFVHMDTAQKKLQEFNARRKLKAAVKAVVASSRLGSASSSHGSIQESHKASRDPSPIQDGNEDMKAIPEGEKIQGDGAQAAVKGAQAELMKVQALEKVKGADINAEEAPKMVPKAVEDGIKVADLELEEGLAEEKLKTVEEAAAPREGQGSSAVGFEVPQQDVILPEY
Sequence of Serine/threonine-protein kinase SIK1 (Homo sapiens) (P57059 whole entry): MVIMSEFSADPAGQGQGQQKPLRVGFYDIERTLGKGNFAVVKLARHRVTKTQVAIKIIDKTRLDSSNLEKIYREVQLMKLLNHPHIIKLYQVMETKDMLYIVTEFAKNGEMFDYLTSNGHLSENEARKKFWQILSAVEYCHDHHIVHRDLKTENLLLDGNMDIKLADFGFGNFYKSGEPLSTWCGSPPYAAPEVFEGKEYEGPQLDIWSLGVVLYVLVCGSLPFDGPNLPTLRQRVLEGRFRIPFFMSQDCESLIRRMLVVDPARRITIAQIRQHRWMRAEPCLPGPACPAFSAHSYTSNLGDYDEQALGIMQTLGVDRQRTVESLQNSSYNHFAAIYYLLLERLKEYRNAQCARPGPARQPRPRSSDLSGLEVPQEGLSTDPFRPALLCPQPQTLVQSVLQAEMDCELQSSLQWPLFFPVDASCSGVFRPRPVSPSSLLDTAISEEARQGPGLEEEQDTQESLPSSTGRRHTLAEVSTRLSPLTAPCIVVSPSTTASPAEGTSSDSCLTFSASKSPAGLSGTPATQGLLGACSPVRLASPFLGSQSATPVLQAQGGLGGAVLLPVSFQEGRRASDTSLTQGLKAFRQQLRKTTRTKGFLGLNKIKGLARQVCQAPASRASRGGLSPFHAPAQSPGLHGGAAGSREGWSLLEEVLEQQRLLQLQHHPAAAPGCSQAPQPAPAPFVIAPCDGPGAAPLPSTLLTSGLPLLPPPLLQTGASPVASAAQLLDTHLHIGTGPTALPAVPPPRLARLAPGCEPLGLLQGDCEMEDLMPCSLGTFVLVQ
Sequence of Mitogen-activated protein kinase 8 (Homo sapiens) (P45983 whole entry, the tested form may be a part): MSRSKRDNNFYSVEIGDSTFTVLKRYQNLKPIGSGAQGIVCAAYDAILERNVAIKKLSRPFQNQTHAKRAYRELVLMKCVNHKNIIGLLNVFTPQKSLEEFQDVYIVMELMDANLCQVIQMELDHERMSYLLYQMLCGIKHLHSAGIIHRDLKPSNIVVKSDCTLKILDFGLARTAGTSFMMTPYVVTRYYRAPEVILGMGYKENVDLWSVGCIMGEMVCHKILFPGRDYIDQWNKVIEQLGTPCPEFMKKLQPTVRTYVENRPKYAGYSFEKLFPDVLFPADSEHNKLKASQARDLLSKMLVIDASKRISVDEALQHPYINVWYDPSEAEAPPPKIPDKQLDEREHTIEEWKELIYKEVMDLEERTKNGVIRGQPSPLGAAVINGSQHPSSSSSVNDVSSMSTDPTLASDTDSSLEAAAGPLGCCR
Sequence of Serine/threonine-protein kinase DCLK2 (Homo sapiens) (Q8N568 whole entry): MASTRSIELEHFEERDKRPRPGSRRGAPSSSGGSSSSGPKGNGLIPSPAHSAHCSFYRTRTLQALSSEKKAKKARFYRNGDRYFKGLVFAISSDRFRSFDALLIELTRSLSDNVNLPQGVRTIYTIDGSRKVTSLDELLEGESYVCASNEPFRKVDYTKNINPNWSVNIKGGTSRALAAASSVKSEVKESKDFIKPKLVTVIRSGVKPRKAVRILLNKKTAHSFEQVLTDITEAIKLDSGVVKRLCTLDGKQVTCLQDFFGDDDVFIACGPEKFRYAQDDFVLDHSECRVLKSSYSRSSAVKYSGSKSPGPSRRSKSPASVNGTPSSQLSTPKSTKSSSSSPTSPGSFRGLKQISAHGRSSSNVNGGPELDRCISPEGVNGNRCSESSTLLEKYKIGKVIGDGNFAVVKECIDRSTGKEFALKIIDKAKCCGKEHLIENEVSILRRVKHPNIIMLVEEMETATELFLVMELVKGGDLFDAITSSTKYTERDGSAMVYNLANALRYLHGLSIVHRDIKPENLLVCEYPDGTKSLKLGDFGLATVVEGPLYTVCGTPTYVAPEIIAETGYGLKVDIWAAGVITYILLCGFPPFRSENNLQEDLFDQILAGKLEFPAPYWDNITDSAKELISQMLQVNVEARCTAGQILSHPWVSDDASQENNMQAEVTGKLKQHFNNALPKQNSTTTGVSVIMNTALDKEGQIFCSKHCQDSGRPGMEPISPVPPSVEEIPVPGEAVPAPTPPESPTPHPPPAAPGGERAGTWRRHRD
Sequence of Ribosomal protein S6 kinase alpha-4 (Homo sapiens) (O75676 whole entry, looked up, the tested form may be a part): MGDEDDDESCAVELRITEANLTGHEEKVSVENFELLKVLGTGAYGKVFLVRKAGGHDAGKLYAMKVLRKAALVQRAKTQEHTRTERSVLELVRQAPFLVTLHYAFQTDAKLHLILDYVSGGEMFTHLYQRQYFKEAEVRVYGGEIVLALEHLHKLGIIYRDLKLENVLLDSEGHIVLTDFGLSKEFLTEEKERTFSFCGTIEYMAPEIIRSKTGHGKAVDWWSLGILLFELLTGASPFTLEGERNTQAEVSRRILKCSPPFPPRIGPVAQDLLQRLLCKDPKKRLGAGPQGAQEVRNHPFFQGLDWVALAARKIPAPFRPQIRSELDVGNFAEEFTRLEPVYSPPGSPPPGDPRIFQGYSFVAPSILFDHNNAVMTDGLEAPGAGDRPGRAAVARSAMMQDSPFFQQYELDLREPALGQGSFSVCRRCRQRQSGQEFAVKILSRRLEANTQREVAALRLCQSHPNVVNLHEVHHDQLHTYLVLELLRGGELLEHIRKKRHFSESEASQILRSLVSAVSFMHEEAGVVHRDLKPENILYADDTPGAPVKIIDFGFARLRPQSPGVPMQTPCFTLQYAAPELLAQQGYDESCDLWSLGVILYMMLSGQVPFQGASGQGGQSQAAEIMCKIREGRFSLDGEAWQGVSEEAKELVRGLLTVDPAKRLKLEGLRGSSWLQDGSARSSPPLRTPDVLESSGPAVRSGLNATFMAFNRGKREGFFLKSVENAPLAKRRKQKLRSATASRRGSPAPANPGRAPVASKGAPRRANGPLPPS
Sequence of G protein-coupled receptor kinase 5 (Homo sapiens) (P34947 whole entry, looked up, the tested form may be a part): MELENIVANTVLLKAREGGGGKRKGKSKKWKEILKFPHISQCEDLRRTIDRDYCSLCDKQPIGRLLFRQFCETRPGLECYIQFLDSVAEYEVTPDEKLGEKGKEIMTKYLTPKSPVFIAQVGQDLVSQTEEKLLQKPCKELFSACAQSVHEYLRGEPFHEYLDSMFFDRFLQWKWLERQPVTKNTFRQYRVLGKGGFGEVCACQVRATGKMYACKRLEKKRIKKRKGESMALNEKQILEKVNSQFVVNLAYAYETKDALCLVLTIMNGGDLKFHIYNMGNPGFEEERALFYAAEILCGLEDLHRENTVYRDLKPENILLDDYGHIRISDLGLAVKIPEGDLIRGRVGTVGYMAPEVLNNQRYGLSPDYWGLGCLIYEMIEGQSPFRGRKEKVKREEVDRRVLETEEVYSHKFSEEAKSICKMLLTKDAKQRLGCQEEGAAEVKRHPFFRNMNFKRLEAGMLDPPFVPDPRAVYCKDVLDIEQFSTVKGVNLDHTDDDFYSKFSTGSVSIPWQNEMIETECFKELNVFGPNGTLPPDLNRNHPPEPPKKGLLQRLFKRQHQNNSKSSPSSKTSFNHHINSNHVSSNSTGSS
Sequence of FKBP12A/mTOR (Homo sapiens) (P62942 2-108 limits assumed, other chains not shown): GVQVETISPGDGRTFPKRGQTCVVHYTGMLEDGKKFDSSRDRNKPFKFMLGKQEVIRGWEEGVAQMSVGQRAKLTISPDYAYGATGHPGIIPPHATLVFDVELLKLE

residual activity [1]: 100%
residual activity [2]: 140%
residual activity [3]: 106%
concentration at 204 h [4]: < 1 ng/mL
residual activity [5]: 110%
IC50 [6]: 2.3 nM
residual activity [7]: 106%
residual activity [8]: 85.5%
residual activity [11]: 115%
residual activity [13]: 115%
residual activity [15]: 100%
residual activity [16]: 104%
residual activity [17]: 116%
residual activity [18]: 81%
residual activity [19]: 118%
residual activity [20]: 89.5%
residual activity [21]: 112%
AUC at 360 h [22]: 2620 ng·h/mL
residual activity [24]: 107%
residual activity [25]: 102%
residual activity [26]: 102%
residual activity [27]: 88.5%
Structure (SMILES): C[C@@H]1CCc2ncc(F)cc2[C@H]2CCCN2c2ccn3ncc(c3n2)C(=O)N1 [SELITRECTINIB]
inhibition [9]: inactive
inhibition [10]: inactive
inhibition [12]: inactive
inhibition [14]: Active
inhibition [23]: inactive
